Structures can show the parent of a compound that is named as a salt. Where two headings read alike, the source gives them in different places.
Columns and labels:
[1] = target: cdk4/D (Homo sapiens, UniProt P11802); assay: Cyclin-dependent kinase 4 (cdk4) assay; type: biochemical; details: for cdk4/D % inhibition at 40 μM: Table 2
Procedure: As noted above, the compounds of this invention are potent inhibitors of cyclin-dependent kinases, and accordingly, are useful in treating and preventing atherosclerosis, and other cell proliferative disorders like cancer. […] A typical assay, for instance, measures inhibitory activity against the cyclin D dependent kinase 4 enzyme (cdk4/D). […] The cdk 4 assay was carried out as follows.
Cyclin-Dependent Kinase 4 (cdk4) Assay
The total volume was 0.1 mL containing a final concentration of 20 mM TRIS (tris[hydroxymethyl]aminomethane), at pH 7.4, 50 mM NaCl, 1 mM dithiothreitol, 10 mM MgCl2, 25 μM ATP containing 0.25 μCi of [^32P]ATP, 20 ng of cdk4, 1 μg of retinoblastoma, and appropriate dilutions of a compound of the present invention. All components except the ATP were added to the wells, and the plate was placed on a plate mixer for 2 minutes. The reaction was started by adding [^32P]ATP and the plate was incubated at 25° C. for 15 minutes. The reaction was terminated by addition of 0.1 mL of 20% trichloroacetic acid (TCA). The plate was kept at 4° C. for at least 1 hour to allow the substrate to precipitate. The wells were then washed five times with 0.2 mL of 10% TCA and ^32P incorporation was determined with a beta plate counter (Wallac Inc., Gaithersburg, Md.).

[2] = Plasma levels in mice after dosing; type: in vivo, nude mice; details: intraperitoneally at 12 mg/kg, at 30 minutes following dosing
Procedure: For example, the compound of Example 60 was administered orally at 5 mg/kg to mice, and plasma levels of about 200 nM were measured at 30 minutes following dosing. The compound was also administered intraperitoneally at 12 mg/kg and produced a peak plasma concentration of 10,000 nM at 30 minutes following dosing.

[3] = tested on: MCF-7 human mammary tumor xenografts; assay: MCF-7 human mammary tumor xenograft; type: in vivo, female nude mice; details: 5 to 20 mg/kg, q12 h×2; days 1-14, subcutaneous MCF-7 xenografts
[4] = target: cdc2/cyclinB (Homo sapiens, UniProt P06493); assay: Cyclin-dependent kinase assay cdc2/cyclinB (cdk1/B); type: biochemical; details: Table 1
Chain of cdc2/cyclinB (P06493 whole entry, species assumed): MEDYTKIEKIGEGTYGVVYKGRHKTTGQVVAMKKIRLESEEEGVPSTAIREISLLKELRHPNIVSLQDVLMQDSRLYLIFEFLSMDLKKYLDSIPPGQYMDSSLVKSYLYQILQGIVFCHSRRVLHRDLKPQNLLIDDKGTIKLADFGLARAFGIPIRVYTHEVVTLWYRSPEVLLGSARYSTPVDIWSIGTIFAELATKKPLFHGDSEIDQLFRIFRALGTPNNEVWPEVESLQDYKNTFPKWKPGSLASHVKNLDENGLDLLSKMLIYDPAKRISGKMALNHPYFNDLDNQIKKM
Chain of cdc2/cyclinB (P14635 whole entry partner, species assumed): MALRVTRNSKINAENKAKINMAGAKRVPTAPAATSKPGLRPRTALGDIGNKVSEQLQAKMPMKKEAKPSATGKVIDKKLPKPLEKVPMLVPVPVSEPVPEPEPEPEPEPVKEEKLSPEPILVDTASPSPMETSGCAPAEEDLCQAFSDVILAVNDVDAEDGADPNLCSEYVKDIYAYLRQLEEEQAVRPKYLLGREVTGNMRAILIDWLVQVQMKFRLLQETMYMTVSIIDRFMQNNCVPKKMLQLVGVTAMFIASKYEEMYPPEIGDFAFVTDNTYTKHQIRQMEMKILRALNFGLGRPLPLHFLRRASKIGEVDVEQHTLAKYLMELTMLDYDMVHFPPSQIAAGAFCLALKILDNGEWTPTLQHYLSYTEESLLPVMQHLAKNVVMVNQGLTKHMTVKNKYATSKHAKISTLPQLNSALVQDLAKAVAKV

[5] = target: T1, PDGF-β receptor tyrosine kinase (Mus musculus, UniProt P05622); assay: PDGF receptor tyrosine kinase assay; type: biochemical; details: Table 4, Formula II compound
T1 construct: amplify a fragment of DNA that codes for the intracellular tyrosine kinase domain; made in house; host or cells: SF9 insect cells (baculovirus)
T1 sequence (P05622 599-961 limits assumed): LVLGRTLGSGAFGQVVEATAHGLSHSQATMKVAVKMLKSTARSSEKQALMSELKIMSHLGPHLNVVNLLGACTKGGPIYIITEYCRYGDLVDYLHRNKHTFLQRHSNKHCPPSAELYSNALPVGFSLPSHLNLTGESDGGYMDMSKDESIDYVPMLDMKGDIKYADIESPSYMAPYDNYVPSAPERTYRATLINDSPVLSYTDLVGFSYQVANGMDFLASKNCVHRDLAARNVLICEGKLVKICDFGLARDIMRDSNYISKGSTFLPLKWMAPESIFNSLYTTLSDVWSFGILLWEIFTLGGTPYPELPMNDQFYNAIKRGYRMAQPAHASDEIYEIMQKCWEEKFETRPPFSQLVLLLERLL
Procedure: (§1) The compounds of Formulas I and II also have shown good inhibitory activity against certain growth factor receptor tyrosine kinase enzymes, including fibroblast growth factor (FGF) and platelet derived growth factor (PDGF). […] The invention compounds range in IC50 inhibition against FGF tyrosine kinase generally from about 0.004 to about 40 μM. […] The assays used to determine these activities were carried out as follows:
(§2) PDGF and EGF Receptor Tyrosine Kinase Assays
(§3) Full-length cDNAs for the mouse PDGF-β and human FGF-1 (flg) receptor tyrosine kinases were obtained from J. Escobedo and prepared as described in J. Biol. Chem., 1991;262:1482-1487. PCR primers were designed to amplify a fragment of DNA that codes for the intracellular tyrosine kinase domain. The fragment was inserted into a baculovirus vector, cotransfected with AcMNPV DNA, and the recombinant virus isolated. SF9 insect cells were infected with the virus to overexpress the protein, and the cell lysate was used for the assay. […] Filters were washed three times with 15% TCA containing 100 mM sodium pyrophosphate, and the radioactivity retained on the filters counted in a Wallac 1250 Betaplate reader. Nonspecific activity was defined as radioactivity retained on the filters following incubation of samples with buffer alone (no enzyme). […]

[6] = target: T2, FGF-1 (flg) receptor tyrosine kinase (Homo sapiens, UniProt P11362); assay: FGF receptor tyrosine kinase assay; type: biochemical; details: Table 4, Formula II compound
T2 construct: amplify a fragment of DNA that codes for the intracellular tyrosine kinase domain; made in house; host or cells: SF9 insect cells (baculovirus)
T2 sequence (P11362 478-767 limits assumed): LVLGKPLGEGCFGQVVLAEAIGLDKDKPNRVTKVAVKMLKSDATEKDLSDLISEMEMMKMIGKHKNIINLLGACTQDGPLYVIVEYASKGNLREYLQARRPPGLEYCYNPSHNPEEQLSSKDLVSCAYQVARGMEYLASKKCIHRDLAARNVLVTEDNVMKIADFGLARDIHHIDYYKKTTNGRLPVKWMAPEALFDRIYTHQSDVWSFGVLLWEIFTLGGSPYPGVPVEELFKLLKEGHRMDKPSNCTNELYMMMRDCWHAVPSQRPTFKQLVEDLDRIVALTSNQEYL
Procedure: as §1, §2, §3

[7] = Table 2, Formula II compounds, read-out: cdk4/IC50 IC50

Chain of cdk4/D (P11802 whole entry, species assumed): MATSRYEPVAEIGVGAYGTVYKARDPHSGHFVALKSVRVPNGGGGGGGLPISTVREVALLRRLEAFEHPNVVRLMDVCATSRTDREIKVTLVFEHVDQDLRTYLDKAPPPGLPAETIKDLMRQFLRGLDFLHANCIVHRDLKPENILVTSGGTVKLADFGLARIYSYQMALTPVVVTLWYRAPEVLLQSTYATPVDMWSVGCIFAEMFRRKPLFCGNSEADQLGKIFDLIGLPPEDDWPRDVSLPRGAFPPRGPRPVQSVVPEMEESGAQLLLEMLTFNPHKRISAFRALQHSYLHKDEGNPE
Chain of cdk4/D (P24385 whole entry partner, species assumed): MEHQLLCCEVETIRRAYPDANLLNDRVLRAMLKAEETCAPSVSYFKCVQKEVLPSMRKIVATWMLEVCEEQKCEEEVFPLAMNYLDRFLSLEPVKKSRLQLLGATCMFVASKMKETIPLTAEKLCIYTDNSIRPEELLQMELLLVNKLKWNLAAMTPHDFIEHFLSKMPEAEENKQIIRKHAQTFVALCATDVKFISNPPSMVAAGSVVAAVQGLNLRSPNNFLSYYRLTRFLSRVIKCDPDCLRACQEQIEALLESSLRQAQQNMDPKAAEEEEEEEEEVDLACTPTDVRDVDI

| Compound | melting point | further results |
| --- | --- | --- |
| CCn1c(=O)c(C)cc2cnc(Nc3ccc(N4CCN(C)CC4)cc3)nc21 [Example 84] | – | IC50 ([1]; Table 1, read-out: cdk4/D IC50): 0.18 µM |
| O=c1ccc2cnc(Nc3ccc(N4CCCCC4)cc3)nc2n1C1CC2CCC1C2 (stereo not drawn) [Example 181, 8-Bicyclo[2.2.1]hept-2-yl-2-(4-piperidin-1-yl-phenylamino)-8H-pyrido[2,3-d]pyrimidin-7-one] | 243 to 244 °C | – |
| O=c1ccc2cnc(Nc3ccc(SC(F)(F)F)cc3)nc2n1C1CC2CCC1C2 (stereo not drawn) [Example 221, 8-Bicyclo[2.2.1]hept-2-yl-2-(4-trifluoromethylsulfanyl-phenylamino)-8H-pyrido[2,3-d]pyrimidin-7-one] | 205 to 206 °C | – |
| O=c1ccc2cnc(NCCCN3CCCCC3)nc2n1C1CCCCC1 [Example 166, 8-Cyclohexyl-2-(3-piperidin-1-yl-propylamino)-8H-pyrido[2,3-d]pyrimidin-7-one] | 111 to 112 °C | – |
| O=c1ccc2cnc(Nc3ccccc3)nc2n1-c1ccccc1 [Example 101, 2-Phenylamino-8-phenyl-8H-pyrido[2,3-]pyrimidin-7-one] | 300 to 302 °C | – |
| CCOC(=O)/C=C/c1cnc(Nc2ccccc2)nc1N [Example 28, Ethyl 3-(4-Amino-2-phenylamino-pyrimidin-5-yl)acrylate] | 190 to 192 °C | IC50 [1, 7]: 65 µM |
| O=c1ccc2cnc(Nc3ccc(N4CCCCC4)cc3)nc2n1C1CCCCCC1 [Example 163, 8-Cycloheptyl-2-(4-piperidin-1-yl-phenylamino)-8H-pyrido[2,3-d]pyrimidin-7-one] | 201 to 202 °C | – |
| CC(C)Nc1ncc2ccc(=O)n(C)c2n1 [Example 67, 2-Isopropylamino-8-methyl-8H-pyrido[2,3-d]pyrimidin-7-one] | 148 to 149 °C | – |
| CCOC(=O)C1CCN(c2ccc(Nc3ncc4ccc(=O)n(C5CCCCC5)c4n3)cc2)CC1 [Example 164, 1-[4-(8-Cyclohexyl-7-oxo-7,8-dihydro-pyrido[2,3-d]pyrimidin-2-ylamino)-phenyl]-piperidine-4-carboxylic acid ethyl ester] | 174 to 175 °C | – |
| COc1ccc(CNc2ncc3ccc(=O)n(C(C)C)c3n2)cc1OC [Example 256, 2-(3,4-Dimethoxy-benzylamino)-8-isopropyl-8H-pyrido[2,3-d]pyrimidin-7-one] | 128 °C | – |
| CCCCn1c(=O)ccc2cnc(Nc3ccccc3)nc21 [Example 40, 8-Butyl-2-phenylamino-8H-pyrido[2,3-d]pyrimidin-7-one] | 183 to 184 °C | – |
| CC(C)n1c(=O)ccc2cnc(Nc3ccc(N4CCN(C)CC4)cc3)nc21 [Example 60, 8-Isopropyl-2-[4-(4-methylpiperazin-1-yl)-phenylamino]-8H-pyrido[2,3-d]pyrimidin-7-one] | – | peak plasma concentration [2]: 10,000 nM; tumor growth inhibition [3]: statistically insignificant tumor growth inhibitions |
| O=c1ccc2cnc(Nc3ccc(N4CCCCC4)cc3)nc2n1C1CC2CCC1C2 (stereo not drawn) [Example 229, 8-Bicyclo[2.2.1]hept-2-yl-2-(4-piperidin-1-yl-phenylamino)-8H-pyrido[2,3-d]pyrimidin-7-one] | 209 °C | – |
| CCC(CC)n1c(=O)ccc2cnc(Nc3ccc(N4CCN(C)CC4)cc3)nc21 [Example 77, 8-(1-Ethylpropyl)-2-[4-(4-methylpiperazin-1-yl)-phenylamino]-8H-pyrido[2,3-d]pyrimidin-7-one] | 155 to 157 °C | – |
| O=c1ccc2cnc(NCc3ccccc3)nc2n1C1CCCCC1 [Example 222, 2-Benzylamino-8-cyclohexyl-8H-pyrido[2,3-d]pyrimidin-7-one] | 183 to 184 °C | – |
| O=c1ccc2cnc(Nc3ccccc3)nc2n1CCCOCc1ccccc1 [Example 38, 8-(3-Benzyloxypropyl)-2-phenylamino-8H-pyrido[2,3-d]pyrimidin-7-one] | – | IC50 [4]: 29.8 µM; IC50 ([1]; Table 1, read-out: cdk4/D IC50): 2.69 µM |
| O=c1ccc2cnc(NCCN3CCCCC3)nc2n1C1CCCCC1 [Example 165, 8-Cyclohexyl-2-(2-piperidin-1-yl-ethylamino)-8H-pyrido[2,3-d]pyrimidin-7-one] | 156 to 157 °C | – |
| CN(C)c1ccc(Nc2ncc3ccc(=O)n(C4CCCCC4)c3n2)cc1 [Example 147, 8-Cyclohexyl-2-(4-dimethylamino-phenylamino)-8H-pyrido[2,3-d]pyrimidin-7-one] | – | IC50 [4]: 0.089 µM; IC50 ([1]; Table 1, read-out: cdk4/D IC50): 0.48 µM |
| O=c1ccc2cnc(Nc3ccc(N4CCCC(CO)C4)cc3)nc2n1C1CCCCC1 (stereo not drawn) [Example 185, 8-Cyclohexyl-2-[4-(3-hydroxymethyl-piperidin-1-yl)-phenylamino]-8H-pyrido[2,3-d]pyrimidin-7-one] | 194 to 195 °C | – |
| CCn1c(=O)c(C)cc2cnc(Nc3ccc(N4CCC(CCCN5CCOCC5)CC4)cc3)nc21 [Example 264, 8-Ethyl-6-methyl-2-{4-[4-(3-morpholin-4-yl-propyl)-piperidin-1-yl]-phenylamino}-8H-pyrido[2,3-d]pyrimidin-7-one] | 199 to 200 °C | – |
| CN(C)CCCN1CCN(c2ccc(Nc3ncc4ccc(=O)n(C5CCCCC5)c4n3)cc2)CC1 [Example 144, 8-Cyclohexyl-2-{4-[4-(3-dimethylamino-propyl)-piperazin-1-yl]-phenylamino}-8H-pyrido[2,3-d]pyrimidin-7-one] | 169 to 170 °C | – |
| 3-(4-Ethylamino-2-phenylamino-pyrimidin-5yl)acrylonitrile [Example 72] | – | cdk4/D % inhibition at 40 μM [1]: 18% |
| CCNc1nc(Nc2ccccc2)ncc1/C=C/C(=O)OCC [Example 17, Ethyl 3-(4-Ethylamino-2-phenylamino-pyrimidin-5-yl)acrylate] | 125 to 126 °C | IC50 [5]: 3.7 µM; IC50 [6]: 4.5 µM; IC50 [1, 7]: 2 µM |
| CN1CCN(c2ccc(Nc3ncc4ccc(=O)n(CCOCc5ccccc5)c4n3)cc2)CC1 [Example 140, 8-(2-Benzyloxy-ethyl)-2-[4-(4-methyl-piperazin-1-yl)-phenylamino]-8H-pyrido[2,3-d]pyrimidin-7-one] | 183 to 185 °C | – |
| CCn1c(=O)ccc2cnc(NC(C)C)nc21 (as salt: sulfate) [Example 47, 8-Ethyl-2-isopropylamino-8H-pyrido[2,3-d]pyrimidin-7-one] | 119 to 120 °C | – |
| 3-(4-Ethylamino-2-phenylamino-pyrimidin-5-yl)-but-2-enoic acid ethyl ester [Example 73] | – | cdk4/D % inhibition at 40 μM [1]: 58% |

Source: patent US6498163B1, “Pyrido[2,3-D]pyrimidines and 4-aminopyrimidines as inhibitors of cellular proliferation” (Warner-Lambert Company, priority 1997, dated 2002)
